Twelve compounds from ChEMBL document CHEMBL1914281, “Discovery of novel pyridyl carboxamides as potent CCR5 antagonists and optimization of their pharmacokinetic profile in rats” (Bioorg Med Chem Lett, 2011) can be followed below.

One data set relates to HOS. Put plainly: Cytotoxicity in human HOS cells assessed as cell death up to 1 uM. In kind it is cell-based.
For a further data set, the system named is PBL. As to the kind of experiment: Cytotoxicity in human PBL cells assessed as cell death up to 1 uM. In kind it is cell-based.
Data set [1] is described as follows: (§1) Metabolic stability of the compound in Sprague-Dawley rat plasma assessed as compound remaining at 1 mg/kg after 45 mins. It is filed as ADME, organism-based. Details: dose 1 mg/kg. Particulars: Sprague-Dawley, plasma, read-out: Stability.
The nature of data set [2]: Metabolic stability of the compound in Sprague-Dawley rat plasma assessed as compound remaining at 1 mg/kg after 10 mins. It is filed as ADME, organism-based. More on the design: dose 1 mg/kg. As to conditions: read-out: Stability.
The nature of data set [3]: Metabolic stability of the compound in Sprague-Dawley rat plasma assessed as compound remaining at 1 mg/kg after 30 mins. In kind it is ADME, organism-based. Particulars: read-out: Stability. More on the design: dose 1 mg/kg.
Data set [4] is described as follows: Metabolic stability of the compound in Sprague-Dawley rat plasma assessed as compound remaining at 1 mg/kg after 20 mins. In kind it is ADME, organism-based. Details: dose 1 mg/kg. As to conditions: read-out: Stability.
Data set [5] is described as follows: Metabolic stability of the compound in Sprague-Dawley rat plasma assessed as compound remaining at 1 mg/kg after 5 mins. In kind it is ADME, organism-based. Details: dose 1 mg/kg. As to conditions: read-out: Stability.
Data set [6] is described as follows: (§2) Metabolic stability of the compound in Sprague-Dawley rat plasma assessed as compound remaining at 1 mg/kg after 60 mins. Particulars: Sprague-Dawley, plasma, read-out: Stability. In kind it is ADME, organism-based. More on the design: dose 1 mg/kg.
Data set [7] concerns Human immunodeficiency virus 1. As to the kind of experiment: Antiviral activity against Human immunodeficiency virus 1 Ba-L in human PBL cells assessed as inhibition of viral replication. In kind it is functional, organism-based.
Data set [8] relates to Human immunodeficiency virus 1. As to the kind of experiment: Antiviral activity against Human immunodeficiency virus 1 Ba-L by in human HOS cells assessed as inhibition of viarl entry by luciferase reporter gene assay. In kind it is functional, organism-based.
Data set [9] deals with Plasma. The data set is described as §1. More on the design: dose 1 mg/kg. As to conditions: in vivo, 0.75 h. In kind it is ADME, organism-based.
Data set [10] in a line: Clearance in Sprague-Dawley rat plasma at 1 mg/kg. Details: dose 1 mg/kg. It is filed as ADME, organism-based.
Data set [11] has as its system Plasma. The data set is described as §2. In kind it is ADME, organism-based. More on the design: dose 1 mg/kg. Particulars: in vivo, 1 h.
A short description of data set [12]: Half life in Sprague-Dawley rat plasma at 1 mg/kg. Details: dose 1 mg/kg. In kind it is ADME, organism-based.
Data set [13] in a line: Oral bioavailability in Sprague-Dawley rat plasma at 1 mg/kg. It is filed as ADME, organism-based.
Data set [14] concerns Plasma. Put plainly: Stability of the compound in Sprague-Dawley rat plasma. It is filed as ADME, cell-free.

`Cc1nc(Oc2ccc(NS(C)(=O)=O)cc2)ccc1CN1CCC(N(C(=O)Nc2ccc(C(N)=O)nc2)c2cccc(F)c2)CC1`: the Activity entry with HOS and in the data set with PBL was “Non-toxic” each time. The remaining at 0.75 h in data set [1] was determined as 11%. Further, the remaining at 10 min in data set [2] worked out at 67%. For the same compound, the remaining at 0.5 h in data set [3] turned out to be 25%. In data set [4], the remaining at 20 min came to 44%. Moreover, the remaining at 5 min in data set [5] is 85%. For the same compound, in [6], the remaining at 1 h came out at 3%. Also, the IC50 in [7] was determined as 0.8 nM; in data set [8], 1 nM.

Consider `CS(=O)(=O)Nc1ccc(Oc2ccc(CN3CCC(N(C(=O)Nc4ccc(C#N)nc4)c4ccccc4)CC3)cn2)cc1`, for which the IC50 in data set [8] stood at 44 nM.

`CS(=O)(=O)Nc1ccc(Oc2ccc(CN3CCC(N(C(=O)Nc4ccc(C(N)=O)nc4)c4ccccc4)CC3)cn2)cc1`: the IC50 in data set [8] was found to be 10 nM.

As to `Cc1cc(NC(=O)N(c2cccc(F)c2)C2CCN(Cc3ccc(Oc4ccc(NS(C)(=O)=O)cc4)nc3C)CC2)cnc1C(N)=O`, the Stability in the data set with Plasma [9] stood at 123%; in the data set on Plasma [11], 134%. Also, the remaining at 10 min in data set [2] worked out at 88%. Besides, the remaining at 0.5 h in data set [3] turned out to be 120%. The remaining at 20 min in data set [4] is 94%. Besides, the remaining at 5 min in data set [5] stood at 90%. This compound displayed a clearance in data set [10] of 37 mL/min/kg. For the same compound, in data set [12], the half-life was 2 h. The IC50 in [7] was found to be 5.3 nM; in data set [8] it was 1.9 nM. In data set [13], the bioavailability amounted to 30%.

`Cc1nc(Oc2ccc(NS(C)(=O)=O)cc2)ccc1CN1CCC(N(C(=O)Nc2cc(F)c(C(N)=O)cc2F)c2cccc(F)c2)CC1`: the clearance in data set [10] was 15 mL/min/kg. This compound also showed a half-life in data set [12] of 3.9 h. In data set [13], this compound displayed a bioavailability of 53%.

For the compound `Cc1nc(Oc2ccc(NS(C)(=O)=O)cc2)ccc1CN1CCC(N(C(=O)Nc2ccc(C(N)=O)nc2C)c2cccc(F)c2)CC1`, in data set [1], the remaining at 0.75 h came out at 74%. For the same compound, the remaining at 10 min in data set [2] amounted to 91%. For the same compound, the remaining at 0.5 h in data set [3] amounted to 84%. Besides, in data set [4], the remaining at 20 min is 95%. In data set [5], the remaining at 5 min came to 94%. Moreover, the clearance in data set [10] turned out to be 11.7 mL/min/kg. Moreover, in data set [6], the remaining at 1 h amounted to 71%. For the same compound, the half-life in data set [12] is 2.8 h. The IC50 turned out to be 3.9 nM in data set [7] and 3.6 nM in [8]. The bioavailability in data set [13] came out at 49%.

For `Cc1nc(Oc2ccc(NS(C)(=O)=O)cc2)ccc1CN1CCC(N(C(=O)Nc2cnc(C(N)=O)c(F)c2)c2cccc(F)c2)CC1`, the remaining at 0.75 h in data set [1] was determined as 12%. Further, the remaining at 10 min in [2] amounted to 71%. Besides, in the data set with Plasma [14], the Stability result is “Unstable”. For the same compound, in [3], the remaining at 0.5 h was determined as 26%. The remaining at 20 min in data set [4] was determined as 42%. Besides, the remaining at 5 min in data set [5] came out at 86%. The remaining at 1 h in data set [6] amounted to 4%. In addition, the IC50 in [7] was 1.1 nM; in data set [8], 1.2 nM.

Regarding `Cc1nc(Oc2ccc(NS(C)(=O)=O)cc2)ncc1CN1CCC(N(C(=O)Nc2ccc(C(N)=O)nc2)c2cccc(F)c2)CC1`, the Activity result with HOS and in the data set with PBL was “Non-toxic” each time. In addition, the IC50 stood at 0.9 nM in data set [7] and 2.4 nM in [8].

As for `Cc1nc(Oc2ccc(NS(C)(=O)=O)cc2F)ccc1CN1CCC(N(C(=O)Nc2ccc(C(N)=O)nc2)c2cccc(F)c2)CC1`, the Activity result in the data set with HOS and with PBL was “Non-toxic” throughout. In addition, the IC50 in [7] was found to be 0.5 nM; in data set [8], 1.2 nM.

Regarding `Cc1nc(Oc2ccc(NS(C)(=O)=O)cc2Cl)ccc1CN1CCC(N(C(=O)Nc2ccc(C(N)=O)nc2)c2cccc(F)c2)CC1`, the Activity result in the data set with HOS and in the data set with PBL was “Non-toxic” each time. Also, the figures for the IC50 in data set [7] and in [8] were 1.1 nM and 1.2 nM, respectively.

`CS(=O)(=O)Nc1ccc(Oc2ccc(CN3CCC(N(C(=O)Nc4ccc(C(N)=O)nc4)c4ccccc4)CC3)c(C3CC3)n2)cc1`: the Activity entry with HOS and in the data set with PBL was “Non-toxic” in each case. The IC50 turned out to be 2.2 nM in [7] and 1 nM in data set [8].

Take `Cc1cc(NS(C)(=O)=O)ccc1Oc1ccc(CN2CCC(N(C(=O)Nc3ccc(C(N)=O)nc3)c3cccc(F)c3)CC2)c(C)n1`: the Activity entry in the data set with HOS and in the data set with PBL was “Non-toxic” each time. In addition, the IC50 came to 0.6 nM in data set [7] and 1 nM in data set [8].
